According to ChEMBL document CHEMBL1133156, “Macrocarpins A-D, new cytotoxic nor-triterpenes from Maytenus macrocarpa” (Bioorg Med Chem Lett, 2000):
Converted amounts (≈) assume the structure as drawn. “And” between values parts separate entries of the source, which are not always exact repeats. Equal values may be shown once.

Experiments:
A549 = test: Compound was tested for cytotoxic activity against A-549 human lung carcinoma (ATCC:CCL-185); assay type: functional, cell-based
P388 [1] = test: Compound was tested for cytotoxic activity against P-388D1 mouse lymphoma (ATCC: CCL-46); assay type: functional, cell-based
SK-MEL-28 = test: Compound was tested for cytotoxic activity against SK-MEL-28 human melanoma (ATCC:HTB-72); assay type: functional, cell-based
HT-29 = test: (§1) Compound was tested for cytotoxic activity against […] human colon carcinoma (ATCC:HTB-38); assay type: functional, cell-based
P388 [2] = test: Compound was tested for cytotoxic activity against P-388D1 mouse lymphoma (ATCC:CCL-46); assay type: functional, cell-based
Homo sapiens = species: Homo sapiens; test: as §1; assay type: functional

In the case of COC(=O)[C@]1(C)CC[C@]2(C)CC[C@]3(C)C4CC(=O)c5c(cc(OC(C)=O)c(OC(C)=O)c5C=O)[C@]4(C)CC[C@@]3(C)C2C1 (stereo partly specified), the IC50 (A549) is reported as 0.25 µg/mL and 400 nM, the IC50 (P388 [1]) is reported as 0.4 µM and the IC50 (SK-MEL-28) is reported as 0.25 µg/mL and 400 nM. For the same molecule, the IC50 (HT-29) was 0.25 µg/mL and 400 nM and the IC50 (P388 [2]) was 0.25 µg/mL (≈ 0.431 µM).
With COC(=O)[C@]1(C)CC[C@]2(C)CC[C@]3(C)C4CC(=O)c5c(cc(O)c(O)c5C=O)[C@]4(C)CC[C@@]3(C)C2C1 (stereo partly specified) the IC50 (A549) was 0.5 µg/mL and 1 µM, the IC50 (P388 [1]) was 1 µM and the IC50 (SK-MEL-28) was 0.5 µg/mL and 1 µM. It also gave an IC50 (Homo sapiens) of 2 µM, an IC50 (HT-29) of 1 µg/mL (≈ 2.01 µM) and an IC50 (P388 [2]) of 0.5 µg/mL (≈ 1.01 µM).
In the case of C[C@@H]1CC2[C@]3(C)CCC4(C)C(=CC(=O)c5c4cc(O)c(O)c5C(=O)O)[C@@]3(C)CC[C@@]2(C)[C@H](O)C1=O (single isomer, unassigned), the IC50 (A549) is reported as 2.5 µg/mL and 5.2 µM, the IC50 (P388 [1]) is reported as 5.2 µM and the IC50 (SK-MEL-28) is reported as 2.5 µg/mL and 5.2 µM. For the same molecule, the IC50 (HT-29) was 2.5 µg/mL and 5.2 µM and the IC50 (P388 [2]) was 2.5 µg/mL (≈ 5.18 µM).
For CC1=C(O)C(=O)C=C2C1=CC(O)[C@H]1[C@@]2(C)CC[C@@]2(C)C3C[C@@H](C)C(=O)[C@@H](O)[C@]3(C)CC[C@]12C (single isomer, unassigned), the IC50 (A549) was 1 µg/mL and 2 µM, the IC50 (P388 [1]) was 1 µM and the IC50 (SK-MEL-28) was 1 µg/mL and 2 µM. For the same molecule, the IC50 (HT-29) was 1 µg/mL and 2 µM and the IC50 (P388 [2]) was 0.5 µg/mL (≈ 1.1 µM).
COc1c(O)cc2c(c1C(=O)O)C(=O)C=C1C2(C)CC[C@@]2(C)C3C[C@@H](C)C(=O)[C@@H](O)[C@]3(C)CC[C@]12C (single isomer, unassigned) was tested, and the IC50 (A549) was 10 µg/mL and 20.7 µM, the IC50 (P388 [1]) was 20.7 µM and the IC50 (SK-MEL-28) was 10 µg/mL and 20.7 µM. The IC50 (HT-29) was 10 µg/mL and 20.7 µM and the IC50 (P388 [2]) was 10 µg/mL (≈ 20.1 µM).
